Our source for the IC50 values is patent publication US7645776B2, “Heteroaryl substituted piperidine derivatives which are L-CPT1 inhibitors” (Hoffmann-La Roche Inc., priority 2005, dated 2010).

This test has as its target T1, liver carnitine palmitoyl transferase 1 (L-CPT1) (Homo sapiens, UniProt P50416).
T1 construct: made in house; host or cells: Pichia pastoris strain X-33 (crude cell-free extract)
T1 sequence (P50416 1-773): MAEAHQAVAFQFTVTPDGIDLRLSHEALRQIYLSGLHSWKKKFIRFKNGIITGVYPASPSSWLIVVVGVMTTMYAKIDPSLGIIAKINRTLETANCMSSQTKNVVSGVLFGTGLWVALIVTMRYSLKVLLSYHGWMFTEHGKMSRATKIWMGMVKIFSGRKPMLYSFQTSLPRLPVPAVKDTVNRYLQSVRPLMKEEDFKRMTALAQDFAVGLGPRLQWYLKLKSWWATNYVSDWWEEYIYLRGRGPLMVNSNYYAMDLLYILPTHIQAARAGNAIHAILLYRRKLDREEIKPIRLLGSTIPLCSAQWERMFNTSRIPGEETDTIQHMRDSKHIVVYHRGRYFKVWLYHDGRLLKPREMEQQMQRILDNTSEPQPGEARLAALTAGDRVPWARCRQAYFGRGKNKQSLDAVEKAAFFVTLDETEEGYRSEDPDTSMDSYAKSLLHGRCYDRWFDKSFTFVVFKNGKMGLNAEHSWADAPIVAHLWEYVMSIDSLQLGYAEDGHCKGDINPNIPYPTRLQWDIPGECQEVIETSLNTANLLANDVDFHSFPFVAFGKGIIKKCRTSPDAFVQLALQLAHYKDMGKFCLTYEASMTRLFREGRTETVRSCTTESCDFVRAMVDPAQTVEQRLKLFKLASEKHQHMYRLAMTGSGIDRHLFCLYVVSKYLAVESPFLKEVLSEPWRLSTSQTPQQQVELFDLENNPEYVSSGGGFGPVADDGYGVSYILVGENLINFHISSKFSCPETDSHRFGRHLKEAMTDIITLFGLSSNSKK
Description: L-CPT1 inhibition, spectrophotometric DTNB (Ellman's reagent) CPT activity assay. Format: biochemical. How it is done:
The following tests were carried out in order to determine the activity of the compounds of the present invention. Background information on the performed assays can be found in: Jackson et al., 1999, Biochem. J. 341, 483-489 and Jackson et al., 2000, J. Biol. Chem. 275, 19560-19566.
Human liver and muscle CPT1 cDNAs and rat CPT2 cDNA were subcloned in pGAPZB or pGAPZA, respectively. These plasmids were used to transform P. pastoris strain X-33 via electroporation after the preparation of electrocompetent cells. High copy number clones were selected where necessary using 0.5 or 1 mg/ml Zeocin. Cultures for activity measurements were induced for 16 h in YPD medium (1% yeast extract, 2% peptone, 2% glucose). Crude cell extracts were prepared by disrupting the cells with glass beads or French Press, depending on fermenter sizes. After centrifugation, the cell-free extracts were resuspended in cell breaking buffer (50 mM Tris, pH7.4, 100 mM KCl, 1 mM EDTA) in the presence of a protease inhibitor cocktail, before aliquoting and freezing at −20° C.
CPT activity was measured using a spectrophotometric assay using 5,5′-dithio-bis-(2-nitrobenzoic acid) (DTNB) also called Ellman's reagent. The HS-CoA released on the formation of acylcarnitine from carnitine (500 μM) and palmitoyl-CoA (80 μM) reduced DTNB (300 μM) forming 5-mercapto-(2-nitrobenzoic acid) which absorbed at 410 nm with a molar coefficient extinction of 13600 M^−1.cm^−1. The assay buffer contained 120 mM KCl, 25 mM Tris, pH 7.4, 1 mM EDTA. This assay was used for the identification of selective inhibitors of the liver CPT1 isoform versus the muscle CPT1 and CPT2 isoforms.
For orientation: Ellman's reagent forms a yellow product with free thiols.

As to `COc1ccc(-c2n[nH]c([C@H]3CN(C)CCN3C(=O)COc3ccccc3)n2)cc1` [Example 172, (R)-1-{2-[5-(4-Methoxy-phenyl)-2H-[1,2,4]triazol-3-yl]-4-methyl-piperazin-1-yl}-2-phenoxy-ethanone], inhibition was half-maximal at 242 nM (IC50).

For `O=C(COc1ccccc1)N1CCCC[C@@H]1c1nc(-c2ccc(F)cc2)no1` [Example 10, (R)-1-{2-[3-(4-Fluoro-phenyl)-[1,2,4]oxadiazol-5-yl]-piperidin-1-yl}-2-phenoxy-ethanone], the IC50 (commonly the concentration that gives 50% inhibition) was 260 nM.

Turning to `COc1ccc(-c2noc([C@H]3CCCCN3C(=O)COc3ccccc3)n2)cc1` [Example 1, (R)-1-{2-[3-(4-Methoxy-phenyl)-[1,2,4]oxadiazol-5-yl]-piperidin-1-yl}-2-phenoxy-ethanone], the IC50 worked out at 66 nM.
